Source: patent US9982005B2, “Macrolides and methods of their preparation and use” (President and Fellows of Harvard College, priority 2013, dated 2018)
Values after ≈ are worked out from the molar mass of the structure shown. Where two headings read alike, the source gives them in different places.

Columns and labels:
Format in all cases: cell-based
EC878 E. coli tolC = test: broth dilution MIC, E. coli EC878
Source text: (§1) We have collected MIC data for a total of 50 novel macrolides that this platform has produced against over 21 unique strains of B. subtilis, E. coli, S. aureus, S. pneumoniae, and H. influenzae, including several multidrug-resistant strains, with a special focus on macrolide resistant mechanisms (vide supra). Azithromycin was included as a control macrolide. CLSI standard procedures for broth dilution MIC determination were used. […] These genotypes can be constitutive or inducible. The finding that C4-epi (unnatural) isomers of the “azaketolide” macrolide class have enhanced activities relative to C4 natural isomers is very exciting.

EC107 E. coli ATCC25922 = test: broth dilution MIC, E. coli EC107
Source text: as §1

[1] = system: SA101 S. aureus ATCC29213; test: broth dilution MIC, S. aureus SA101
Source text: as §1

EC882 E. coli imp = test: broth dilution MIC, E. coli EC882
Source text: as §1

[2] = system: BS1723 B. subtilis BS168 WT wild type; test: broth dilution MIC, B. subtilis BS1723; conditions: BS1723 B. subtilis BS168 WT wild type
Source text: as §1

BS1725 B. subtilis ermC = test: broth dilution MIC, B. subtilis BS1725
Source text: as §1

[3] = Escherichia coli, read-out: MIC
[4] = Staphylococcus aureus, ATCC29213, SA101 S. aureus ATCC29213, read-out: MIC
[5] = Bacillus subtilis, read-out: MIC
[6] = Bacillus subtilis, BS1725 B. subtilis ermC (+ery)
[7] = Bacillus subtilis, BS1725 B. subtilis ermC (−ery)

CC[C@H]1OC(=O)C(C)(F)C(=O)[C@@H](C)[C@@H](O[C@@H]2OC(C)CC(N(C)C)C2O)[C@](C)(OC)C[C@@H](C)CN(C)[C@H](C)[C@H]2N(CCCCn3cc(-c4nccs4)nn3)C(=O)O[C@]12C (stereo partly shown) [FSM-20717]
MIC (EC878 E. coli tolC): 1 µg/mL (≈ 1.17 µM)
MIC (EC107 E. coli ATCC25922): >32 µg/mL
MIC ([1]; SA101 S. aureus ATCC29213): 16 µg/mL (≈ 18.8 µM)
MIC (EC882 E. coli imp): 1 µg/mL (≈ 1.17 µM)
MIC [2]: 16 µg/mL (≈ 18.8 µM)
MIC (BS1725 B. subtilis ermC; BS1725 B. subtilis ermC (+ery)): >32 µg/mL
MIC (BS1725 B. subtilis ermC; BS1725 B. subtilis ermC (−ery)): 8 µg/mL (≈ 9.39 µM)

CC[C@H]1OC(=O)[C@H](C)C(=O)C[C@@H](O[C@@H]2OC(C)CC(N(C)C)C2O)[C@@](C)(OC)C[C@@H](C)CN(C(C)=O)[C@H](C)[C@H]2N(CCCCn3cc(-c4cccc(N)c4)nn3)C(=O)O[C@]12C (stereo partly shown) [FSM-30512]
MIC (EC878 E. coli tolC; Escherichia coli): > 32 µg/mL
MIC (EC107 E. coli ATCC25922; [3]): > 32 µg/mL
MIC [1, 4]: > 32 µg/mL
MIC (EC882 E. coli imp; Escherichia coli): > 32 µg/mL
MIC [2, 5]: > 32 µg/mL
MIC (BS1725 B. subtilis ermC; [6]): > 32 µg/mL
MIC (BS1725 B. subtilis ermC; [7]): > 32 µg/mL

CC[C@H]1OC(=O)[C@H](C)C(=O)C[C@@H](O[C@@H]2OC(C)CC(N(C)C)C2O)[C@@](C)(OC)C[C@@H](C)CN(C(C)=O)[C@H](C)[C@H]2N(CCCCn3cc(-c4nc5ccccc5s4)nn3)C(=O)O[C@]12C (stereo partly shown) [FSM-30514]
MIC (EC878 E. coli tolC; Escherichia coli): > 32 µg/mL
MIC (EC107 E. coli ATCC25922; [3]): > 32 µg/mL
MIC [1, 4]: > 32 µg/mL
MIC (EC882 E. coli imp; Escherichia coli): > 32 µg/mL
MIC [2, 5]: > 32 µg/mL
MIC (BS1725 B. subtilis ermC; [6]): > 32 µg/mL
MIC (BS1725 B. subtilis ermC; [7]): > 32 µg/mL

spiramycin [reference compound]
MIC (EC878 E. coli tolC): 16 µg/mL
MIC (EC107 E. coli ATCC25922): >32 µg/mL
MIC ([1]; SA101 S. aureus ATCC29213): 8 µg/mL
MIC (EC882 E. coli imp): 1 µg/mL
MIC [2]: 2 µg/mL
MIC (BS1725 B. subtilis ermC; BS1725 B. subtilis ermC (+ery)): 16 µg/mL
MIC (BS1725 B. subtilis ermC; BS1725 B. subtilis ermC (−ery)): 2 µg/mL

CC[C@H]1OC(=O)[C@](C)(F)C(=O)C[C@@H](O[C@@H]2OC(C)CC(N(C)C)C2O)[C@](C)(OC)C[C@@H](C)CN[C@H](C)[C@H]2N(CCCCn3cc(-c4cccnn4)nn3)C(=O)O[C@]12C (stereo partly shown) [FSM-10667]
MIC (EC878 E. coli tolC; Escherichia coli): 16 µg/mL (≈ 19.5 µM)
MIC (EC107 E. coli ATCC25922; [3]): > 32 µg/mL
MIC [1, 4]: > 32 µg/mL
MIC (EC882 E. coli imp; Escherichia coli): 4 µg/mL (≈ 4.88 µM)
MIC [2, 5]: > 32 µg/mL
MIC (BS1725 B. subtilis ermC; [6]): > 32 µg/mL
MIC (BS1725 B. subtilis ermC; [7]): > 32 µg/mL

CC[C@H]1OC(=O)[C@H](C)C(=O)C[C@@H](O[C@@H]2OC(C)CC(N(C)C)C2O)[C@](C)(OC)C[C@@H](C)CN[C@H](C)[C@H]2N(CCCCn3cc(-c4nccs4)nn3)C(=O)O[C@]12C (stereo partly shown) [FSM-10787]
MIC (EC878 E. coli tolC; Escherichia coli): 2 µg/mL (≈ 2.48 µM)
MIC (EC107 E. coli ATCC25922; [3]): 32 µg/mL (≈ 39.7 µM)
MIC [1, 4]: > 32 µg/mL
MIC (EC882 E. coli imp; Escherichia coli): 0.125 µg/mL (≈ 0.155 µM)
MIC [2, 5]: > 32 µg/mL
MIC (BS1725 B. subtilis ermC; [6]): > 32 µg/mL
MIC (BS1725 B. subtilis ermC; [7]): > 32 µg/mL

CC[C@H]1OC(=O)[C@](C)(F)C(=O)C[C@@H](O[C@@H]2OC(C)CC(N(C)C)C2O)[C@](C)(OC)C[C@@H](C)CN[C@H](C)[C@H]2N(CCCCn3cc(-c4nc5ccccc5s4)nn3)C(=O)O[C@]12C (stereo partly shown) [FSM-10671]
MIC (EC878 E. coli tolC; Escherichia coli): 32 µg/mL (≈ 36.6 µM)
MIC (EC107 E. coli ATCC25922; [3]): > 32 µg/mL
MIC [1, 4]: > 32 µg/mL
MIC (EC882 E. coli imp; Escherichia coli): 8 µg/mL (≈ 9.15 µM)
MIC [2, 5]: > 32 µg/mL
MIC (BS1725 B. subtilis ermC; [6]): > 32 µg/mL
MIC (BS1725 B. subtilis ermC; [7]): > 32 µg/mL

CC[C@H]1OC(=O)C(C)(F)C(=O)[C@@H](C)[C@@H](O[C@@H]2OC(C)CC(N(C)C)C2O)[C@](C)(OC)C[C@@H](C)CN[C@H](C)[C@H]2N(CCCCn3cc(-c4nc5ccccc5s4)nn3)C(=O)O[C@]12C (stereo partly shown) [FSM-20722]
MIC (EC878 E. coli tolC; Escherichia coli): 1 µg/mL (≈ 1.13 µM)
MIC (EC107 E. coli ATCC25922; [3]): > 32 µg/mL
MIC [1, 4]: 8 µg/mL (≈ 9.01 µM)
MIC (EC882 E. coli imp; Escherichia coli): 0.5 µg/mL (≈ 0.563 µM)
MIC [2, 5]: 16 µg/mL (≈ 18 µM)
MIC (BS1725 B. subtilis ermC; [6]): > 32 µg/mL
